Patent publication US20080312330A1, “Methods for Reducing Mortality and Morbidity by Postoperative Administration of a Pharmacologic Cardiovascular Agent” (priority 1996, published 2008)
Where “and” joins values, the source holds several entries; their conditions need not be identical. Equal values may be shown once.

Tests used:
[1] = tested on: patients with, or at risk for coronary artery disease and scheduled for elective noncardiac surgery; experiment: Randomized, blinded, placebo-controlled trial: mortality and cardiovascular outcomes over two years following noncardiac surgery; type: in vivo
From the text: Eligible patients included those with, or at risk for coronary artery disease and scheduled for elective noncardiac surgery requiring general anesthesia at the San Francisco Veterans Affairs Medical Center. The specific inclusion and exclusion criteria have been described previously (Mangano et al., 1990, N. Eng. J. Med. 323:1781-1788; Mangano et al., 1992, JAMA 268:233-239).
(§1) Patients were randomized to receive either atenolol “TENORMIN” (Zeneca Pharmaceuticals) or placebo prior to induction of anesthesia, immediately following surgery, and daily throughout their hospitalization (up to 7 days). Drug assignment, study physicians, treating clinicians, and data analysis personnel were blinded to study group throughout all phases of this trial.
(§2) Intravenous preparation consisted of two-10-ml syringes, each containing 5 mg atenolol or placebo; oral preparation consisted of two 50 mg tablets of atenolol, or two placebo tablets. Approximately one hour prior to surgery, patients entered the preoperative area and blood pressure was recorded with an automated cuff and 5-lead continuous electrocardiograph. Thirty-minutes prior to entry into the operating room, intravenous administration of study drug began. Exclusion criteria for study drug administration were heart rate <55 bpm, systolic blood pressure <100 mm Hg, or evidence of congestive heart failure, third degree heart block, or bronchospasm (ISIS-I protocol, 1986, Lancet 2:56-66). […] Immediately following surgery, the study drug was again given using the identical technique applied prior to surgery. On the morning of the first postoperative day, and daily thereafter until the patient was discharged from the hospital (up to a maximum of seven days), patients received study drug every 12 hours using the same technique for intravenous infusion, or orally (if able) at which time a tablet of atenolol (0, 50 or 100 mg) or placebo was given daily. If heart rate was >65 bpm and systolic blood pressure >100 mm Hg, 100 mg atenolol (or placebo) was given orally; if heart rate was >55 but <65 bpm and systolic blood pressure >100 mm Hg, 50 mg atenolol (or placebo) was administered; if heart rate was <55 bpm or systolic blood pressure <100 mm Hg, 0 mg atenolol (or placebo) was given. No treating clinician was allowed to observe study drug administration either prior to, or after, surgery.
(§3) All patients received general anesthesia with endotracheal intubation; preoperative medications were continued until the time of surgery, with beta-blockers replaced by study drug on the morning of surgery. There were no other protocol-based restrictions of anesthetic or surgical technique, and clinical decisions were not controlled by study protocol. Perioperative information was recorded and analyzed for possible confounding effects, and included: type and duration of surgery, anesthetic techniques, fluid and blood loss and replacement, cardiovascular medications, hemodynamics, electrocardiographic data, and adverse events.
At six months, one year and two years following surgery, study physicians conducted scheduled research study visits that were independent of usual clinical care.

[2] = tested on: patients with, or at risk for coronary artery disease and scheduled for elective noncardiac surgery; experiment: Same trial: in-hospital tolerance, hemodynamics and in-hospital deaths during study drug administration
Method: as §1, §2, §3
At six months, one year and two years following surgery, study physicians conducted scheduled research study visits that were independent of usual clinical care. Data collected during each visit included history and physical examination, a 12-lead electrocardiogram, and review of all medical records, medications and hospital admissions. Cardiac death was diagnosed if the patient died of either a myocardial infarction, dysrhythmia or congestive heart failure caused primarily by a cardiac condition.

[3] = long-term deaths, one line per patient of the atenolol group

CC(C)NCC(O)COc1ccc(CC(N)=O)cc1 (stereo not drawn) [atenolol]
HAZARDS RATIO, two-year mortality, multivariate models ([1]; Cox multivariate, 30 deaths among 200 patients): 0.5
HAZARDS RATIO, two-year mortality, univariable models ([1]; Cox univariable, 30 deaths among 200 patients): 0.4
hazard ratio, survival in diabetics at two years ([1]; diabetics, two years, P=0.03): 0.25
improvement of survival in diabetics at two years ([1]; diabetics, two years, P=0.03): approximately 75%
deaths over the first 6-8 months ([1]; first 6-8 months, noncardiac, placebo 10 deaths with 7 cardiac-related, P<0.001): one
CAUSE OF DEATH [1, 3]: Respiratory failure and Ventricular tachycardia and Severe CAD, sepsis and Sepsis, ALS and Metastatic renal CA and CHF post CABG and ARDS and Cardiac arrest, lung CA and Metastatic squamous cell CA, larynx, lung
TIME TO DEATH [1, 3]: 237 days and 295 days and 327 days and 385 days and 416 days and 481 days and 529 days and 582 days and 656 days
decrease in the rate of cardiac events within one year ([1]; one year, versus placebo): 3 fold
cardiac events within one year following surgery ([1]; one year, placebo 22 patients, P=0.003): 7 patients
time-to-first adverse event ([1]; placebo group 6 days): 158 days
time to first death ([1]; placebo group 19 days): 237 days
cardiac events within six months following surgery ([1]; six months, placebo 12 patients, P<0.001): 0 patients
cardiovascular event-free survival of patients (FIG. 2) ([1]; two years after surgery): increases cardiovascular event-free survival of patients for two years after surgery
survival of patients (FIG. 1) ([1]; two years after surgery): increases the survival of patients for two years after surgery
decrease in the rate of cardiac events within two years ([1]; two years, versus placebo): 2 fold
reduction in all-cause mortality ([1]; two years, versus placebo, P=0.019): 57%
reduction in cardiac mortality ([1]; two years, versus placebo, P=0.033): 67%
cardiac-related deaths over the two-year outcome period ([1]; two years, placebo 12 cardiac): 4 deaths
deaths (all-cause) over the two-year outcome period ([1]; two years, placebo 21 deaths, P=0.019): 9 deaths
cardiac events within two years following surgery ([1]; two years, placebo 32 patients, P=0.008): 16 patients
noncardiac deaths secondary to metastatic cancer during hospitalization ([2]; during hospitalization): two
noncardiac deaths with pulmonary failure secondary to massive infusion for fluid loss during hospitalization ([2]; during hospitalization): one
cardiac deaths secondary to myocardial infarction during hospitalization ([2]; during hospitalization, placebo two): one
average heart rate during treatment ([2]; during treatment, placebo 87 bpm, P<0.001): 75 bpm
maximum heart rate during treatment ([2]; during treatment, placebo 130 bpm, P<0.001): 113 bpm
patients tolerating the full dose ([2]; human, in vivo): more than 60%
patients who tolerated administration ([2]; human, in vivo): More than 85%
patients with 20% or more decrease in systolic blood pressure or heart rate ([2]; human, in vivo, iv): approximately 10%
patients who developed systolic blood pressure <90 mm Hg or heart rate <40 bpm, or required therapy ([2]; in vivo, iv): no patient
incidence of hypotension or bradycardia, or other events ([2]; in vivo, po): not associated with an increased incidence
